The source made the active and inactive calls. No cut-off for these calls is given here.

For data set [1], the system named is BGC-823. The experiment in a line: Cytotoxicity against human BGC823 cells assessed as cell growth inhibition after 72 hrs by MTT assay. The format is functional, cell-based. The note with it: BGC-823, 72 h.
In data set [2] the test system is SGC-7901. In words: Cytotoxicity against human SGC7901 cells assessed as cell growth inhibition after 72 hrs by MTT assay. It counts as functional, cell-based. The note with it: SGC-7901, 72 h.
Data set [3] has as its system NCI-H460. In words: Cytotoxicity against human NCI-H460 cells assessed as cell growth inhibition after 72 hrs by MTT assay. As to conditions: NCI-H460, 72 h. The format is functional, cell-based.
The test system of data set [4] is NCI-H460. In words: Growth inhibition of human NCI-H460 cells assessed as reduction in cell viability at 5 to 10 uM incubated for 24 to 72 hrs by MTT assay. The format is functional, cell-based.
Data set [5] has as its system NCI-H460. The experiment in a line: Anti-growth activity against human NCI-H460 cells assessed as reduction in colony formation at 10 uM after 48 hrs by crystal violet-based colony forming assay. It counts as functional, cell-based.
The subject of data set [6] is NCI-H460. In words: Anti-migratory activity against human NCI-H460 cells at 10 uM incubated for 48 hrs by wound healing assay. It counts as functional, cell-based.
Data set [7] relates to NCI-H460. In words: Anti-growth activity against human NCI-H460 cells assessed as reduction in colony formation after 18 hrs by crystal violet-based colony forming assay. The format is functional, cell-based.
The test system of data set [8] is NCI-H460. The experiment in a line: Anti-migratory activity against human NCI-H460 cells incubated for 48 hrs by wound healing assay. It counts as functional, cell-based.
The test system of data set [9] is NCI-H460. In words: Cell cycle arrest in human NCI-H460 cells assessed as accumulation at G2/M phase at 5 to 20 uM after 48 hrs by propidium iodide staining-based flow cytometry. The format is functional.
The subject of data set [10] is NCI-H460. The experiment in a line: Antitumor activity against human NCI-H460 cells xenografted in BALB/C-nu nude mouse assessed as reduction in tumor growth at 15 mg/kg, ip administered every day for 15 days. The format is functional, organism-based.
The test system of data set [11] is Mus musculus. The experiment in a line: Toxicity in BALB/C nu nude mouse xenografted with human NCI-H460 cells assessed as weight loss at 15 mg/kg, ip administered everyday for 15 days measured every 2 days. The format is organism-based. The note with it: in vivo.
For data set [12], the system named is Mus musculus. In words: Toxicity in BALB/C nu nude mouse xenografted with human NCI-H460 cells assessed as induction of abnormal behavior at 15 mg/kg, ip administered everyday for 15 days. The format is organism-based. As to conditions: in vivo, 360 h.
In data set [13] the test system is Mus musculus. In words: Toxicity in BALB/C nu nude mouse xenografted with human NCI-H460 cells assessed as histopathological changes in liver at 15 mg/kg, ip administered everyday for 15 days by hematoxylin and eosin staining based light microscopic analysis. The format is organism-based. As to conditions: in vivo, 360 h.
Data set [14] has as its system Mus musculus. In words: Toxicity in BALB/C nu nude mouse xenografted with human NCI-H460 cells assessed as histopathological changes in lung at 15 mg/kg, ip administered everyday for 15 days by hematoxylin and eosin staining based light microscopic analysis. The format is organism-based. As to conditions: in vivo, 360 h.
Data set [15] deals with NCI-H460. The experiment in a line: Induction of apoptosis in tumor of human NCI-H460 cells xenografted in BALB/C nu nude mouse assessed as downregulation of bcl2 expression at 15 mg/kg, ip administered everyday for 15 days by Western blot analysis. It counts as functional, organism-based.
Data set [16] has as its system NCI-H460. In words: Anti-growth activity against human NCI-H460 cells assessed as reduction in colony formation at 20 uM after 18 hrs by crystal violet-based colony forming assay. It counts as functional, cell-based.
In data set [17] the test system is NCI-H460. The experiment in a line: Anti-migratory activity against human NCI-H460 cells at 20 uM incubated for 48 hrs by wound healing assay. It counts as functional, cell-based.

Consider `COc1ccc(C(=O)/C=C2/C(=O)Nc3ccccc32)c(OC)c1`, for which the IC50 is 9.2 µM in data set [1], 11.5 µM in [2] and 5.4 µM in data set [3].

As to `O=C1Nc2ccccc2/C1=C\C(=O)c1cc(F)cc(F)c1`, the IC50 in data set [1] came out at 15.7 µM; in data set [2] it was 17.6 µM; in data set [3], 13.3 µM.

As for `COc1cc(O)c(CC=C(C)C)c(O)c1C(=O)/C=C/c1ccc(O)cc1` [XANTHOHUMOL], the IC50 is 7.8 µM in [1], 10 µM in data set [2] and 6.9 µM in data set [3]. In addition, the “growth inhibition (GI)” value in data set [4] is “Active”. The result in [5] and in [6] was Active.

As for `COc1ccc(C(=O)/C=C2/C(=O)Nc3ccccc32)cc1`, the IC50 turned out to be 19.8 µM in data set [1], 23.2 µM in data set [2] and 5.5 µM in [3].

As to `O=C1Nc2ccccc2/C1=C\C(=O)c1ccccc1`, the IC50 is 13.2 µM in [1], 9.3 µM in data set [2] and 10.4 µM in data set [3].

As for `O=C1Nc2ccccc2/C1=C\C(=O)c1ccccc1Br`, the IC50 in [1] turned out to be 9.5 µM; in data set [2], 13.1 µM; in data set [3], 11 µM.

For the molecule `CC(C)C(=O)Nc1cccc(C(=O)/C=C2/C(=O)Nc3ccccc32)c1`, the IC50 in data set [1] worked out at 6.2 µM; in data set [2], 8.6 µM; in data set [3] it was 9.7 µM.

`O=C1Nc2ccccc2/C1=C\C(=O)c1ccc(Cl)c(Cl)c1`: the values for the IC50 in data set [1], in data set [2] and in data set [3] were 13.2 µM, 17.8 µM and 13.7 µM, respectively.

Take `O=C1Nc2ccccc2/C1=C\C(=O)c1ccccc1F`: the IC50 in [1] was 11.8 µM; in data set [2] it was 17.4 µM; in data set [3], 8.5 µM.

Take `O=C1Nc2ccccc2/C1=C\C(=O)c1ccc(F)cc1`: the IC50 worked out at 11.1 µM in data set [1], 12.4 µM in data set [2] and 7.5 µM in data set [3].

Regarding `Nc1cccc(C(=O)/C=C2/C(=O)Nc3ccccc32)c1`, the IC50 is 29.9 µM in [1], 14.4 µM in [2] and 20.4 µM in data set [3].

On to `O=C1Nc2ccccc2/C1=C\C(=O)c1ccc(Br)cc1`, for which the IC50 in data set [1] worked out at 9 µM; in data set [2], 10.2 µM; in data set [3] it was 11.5 µM.

Take `O=C1Nc2ccccc2/C1=C\C(=O)c1cccc(Cl)c1`: the IC50 was 7.7 µM in data set [1], 8.4 µM in data set [2] and 9.8 µM in data set [3].

With `O=C1Nc2ccccc2/C1=C\C(=O)c1ccc(Cl)cc1`, the IC50 is 6.9 µM in data set [1], 8.5 µM in data set [2] and 6.5 µM in [3].

For the molecule `Nc1c(Cl)cc(C(=O)/C=C2/C(=O)Nc3ccccc32)cc1Cl`, the values for the IC50 in data set [1], in data set [2] and in [3] were 8.5 µM, 11.9 µM and 6.2 µM, respectively.

In the case of `COc1cc(C(=O)/C=C2/C(=O)Nc3ccccc32)cc(OC)c1OC`, the figures for the IC50 in data set [1], in data set [2] and in [3] were 13.9 µM, 18.3 µM and 10.9 µM, respectively.

In the case of `COc1ccccc1C(=O)/C=C1/C(=O)Nc2ccccc21`, the results for the IC50 in data set [1], in data set [2] and in data set [3] were 10.2 µM, 16.3 µM and 10.2 µM, respectively.

Consider `C=CC(=O)Nc1cccc(C(=O)/C=C2/C(=O)Nc3ccccc32)c1`, for which the IC50 in data set [1] was 3.6 µM; in data set [2], 5.7 µM; in [3] it was 3.2 µM. Moreover, the Activity entry in [4] is “Dose-dependent effect”; in [7] it was “Dose-dependent effect”; in data set [8], “Dose-dependent effect”; in [11], “Non-Toxic”; in data set [12], “Non-Toxic”; in [13], “Non-Toxic”. Further, in data set [14], the Activity result is “Non-Toxic”. For the same molecule, the “growth inhibition (GI)” value in data set [4] (TDE = time-dependent effect) is “Tde”. Also, the result in [9] and in data set [15] was Active. The TGI entry in [10] is “Active”.

For the molecule `O=C1Nc2ccccc2/C1=C\C(=O)c1ccccc1Cl`, the IC50 in data set [1] was determined as 9.1 µM; in data set [2], 12.8 µM; in data set [3], 7.7 µM.

Regarding `COc1cc(/C=C/C(=O)CC(=O)/C=C/c2ccc(O)c(OC)c2)ccc1O` [CURCUMIN], the IC50 in data set [1] was 19.5 µM; in data set [2], 26.2 µM. Besides, in data set [4], the “growth inhibition (GI)” value was “Active”. Besides, the result in [16], in data set [17] and in data set [15] was Active. The Activity result in data set [13] and in [14] was “Non-Toxic” in each case.

As for `O=C1Nc2ccccc2/C1=C\C(=O)c1cc(Cl)ccc1Cl`, the IC50 in [1] came out at 53.7 µM; in data set [2], 56.3 µM; in [3], 61.6 µM.

`O=C1Nc2ccccc2/C1=C\C(=O)c1ccc([N+](=O)[O-])cc1`: the IC50 stood at 14.3 µM in data set [1], 18.2 µM in data set [2] and 18.4 µM in [3].

Turning to `CC(=O)Nc1cccc(C(=O)/C=C2/C(=O)Nc3ccccc32)c1`, the IC50 in data set [1] amounted to 9.1 µM; in data set [2], 14.1 µM; in data set [3], 12.3 µM.

As for `CCC(=O)Nc1cccc(C(=O)/C=C2/C(=O)Nc3ccccc32)c1`, the values for the IC50 in data set [1], in [2] and in [3] were 7.5 µM, 11.5 µM and 10.3 µM, respectively.

The values above are taken from ChEMBL document CHEMBL4251621, “Design, synthesis and QSAR study of novel isatin analogues inspired Michael acceptor as potential anticancer compounds” (Eur J Med Chem, 2018).
